These results are taken from patent US10953100B2, “Compounds and therapeutic uses thereof” (priority 2015, dated 2021).

pEC50: −log10 of the molar value.

This test addresses Anti-alpha galactosyl IgG antibody. Kind of test: ELISA assay: streptavidin-captured biotin compound, binding of anti-alpha galactosyl IgG antibody. The note with it: geometric mean with standard error in brackets; streptavidin plate, anti-alpha galactosyl IgG 0.5 μg/mL; read-out: Concentration at half maximal binding. Also on record: species or system human. In general terms: ELISA stands for enzyme-linked immunosorbent assay.

As for `CC(=O)NC1C(OCCCNC(=O)COc2ccc(-c3cc(OCC(=O)NCCCOC4OC(CO)C(OC5OC(CO)C(O)C(OC6OC(CO)C(O)C(O)C6O)C5O)C(O)C4NC(C)=O)cc(C(=O)NCCNC(=O)CCOCCOCCOCCOCCOCCOCCOCCOCCOCCOCCOCCOCCNC(=O)CCCCC4SCC5NC(=O)NC54)c3)cc2)OC(CO)C(OC2OC(CO)C(O)C(OC3OC(CO)C(O)C(O)C3O)C2O)C1O` (centres unmarked) [Example 15], the pEC50 was 7.94. With `CC(=O)N[C@H]1[C@H](OCCCNC(=O)COc2cc(OCC(=O)NCCCO[C@@H]3O[C@H](CO)[C@@H](O[C@@H]4O[C@H](CO)[C@H](O)[C@H](O[C@H]5O[C@H](CO)[C@H](O)[C@H](O)[C@H]5O)[C@H]4O)[C@H](O)[C@H]3NC(C)=O)cc(-c3cc(C(=O)NCCNC(=O)CCCC[C@@H]4SC[C@@H]5NC(=O)N[C@@H]54)cc(-c4cc(OCC(=O)NCCCO[C@@H]5O[C@H](CO)[C@@H](O[C@@H]6O[C@H](CO)[C@H](O)[C@H](O[C@H]7O[C@H](CO)[C@H](O)[C@H](O)[C@H]7O)[C@H]6O)[C@H](O)[C@H]5NC(C)=O)cc(OCC(=O)NCCCO[C@@H]5O[C@H](CO)[C@@H](O[C@@H]6O[C@H](CO)[C@H](O)[C@H](O[C@H]7O[C@H](CO)[C@H](O)[C@H](O)[C@H]7O)[C@H]6O)[C@H](O)[C@H]5NC(C)=O)c4)c3)c2)O[C@H](CO)[C@@H](O[C@@H]2O[C@H](CO)[C@H](O)[C@H](O[C@H]3O[C@H](CO)[C@H](O)[C@H](O)[C@H]3O)[C@H]2O)[C@@H]1O` [Example 62] the figure was 7.68; with `CC(=O)NC1C(OCCCNC(=O)CCOCCOCCOCCOCCOCCOCCOCCOCCOCCOCCOCCOCCNC(=O)COc2ccc(-c3cc(OCC(=O)NCCOCCOCCOCCOCCOCCOCCOCCOCCOCCOCCOCCOCCC(=O)NCCCOC4OC(CO)C(OC5OC(CO)C(O)C(OC6OC(CO)C(O)C(O)C6O)C5O)C(O)C4NC(C)=O)cc(C(=O)NCCNC(=O)CCOCCOCCOCCOCCOCCOCCOCCOCCOCCOCCOCCOCCNC(=O)CCCCC4SCC5NC(=O)NC54)c3)cc2)OC(CO)C(OC2OC(CO)C(O)C(OC3OC(CO)C(O)C(O)C3O)C2O)C1O` (centres unmarked) [Example 48], 7.60; with `CC(=O)N[C@H]1[C@H](OCCCNC(=O)COc2cc(OCC(=O)NCCCO[C@@H]3O[C@H](CO)[C@@H](O[C@@H]4O[C@H](CO)[C@H](O)[C@H](O[C@H]5O[C@H](CO)[C@H](O)[C@H](O)[C@H]5O)[C@H]4O)[C@H](O)[C@H]3NC(C)=O)cc(-c3cccc(-c4cccc(C(=O)NCCNC(=O)CCCC[C@@H]5SC[C@@H]6NC(=O)N[C@@H]65)c4)c3)c2)O[C@H](CO)[C@@H](O[C@@H]2O[C@H](CO)[C@H](O)[C@H](O[C@H]3O[C@H](CO)[C@H](O)[C@H](O)[C@H]3O)[C@H]2O)[C@@H]1O` [Example 61], 7.52.

As for `CC(=O)N[C@H]1[C@H](OCCCNC(=O)COc2cccc(-c3cc(OCC(=O)NCCCO[C@@H]4O[C@H](CO)[C@@H](O[C@@H]5O[C@H](CO)[C@H](O)[C@H](O[C@H]6O[C@H](CO)[C@H](O)[C@H](O)[C@H]6O)[C@H]5O)[C@H](O)[C@H]4NC(C)=O)cc(C(=O)NCCNC(=O)CCCC[C@@H]4SC[C@@H]5NC(=O)N[C@@H]54)c3)c2)O[C@H](CO)[C@@H](O[C@@H]2O[C@H](CO)[C@H](O)[C@H](O[C@H]3O[C@H](CO)[C@H](O)[C@H](O)[C@H]3O)[C@H]2O)[C@@H]1O` [Example 14], the pEC50 is 7.92.
